# Article PMC10609854 (Pharmaceuticals, 2023)
# Experiments:
# [1] = target: human histamine H1 receptor; design: method as in PMID 28797771; conditions: cited from earlier work
# [2] = system: carrageenan-induced thermal hyperalgesia; test: carrageenan-induced thermal hyperalgesia (plantar test); format: in vivo; conditions: rats
# Protocol: (§1) The acute, local inflammation and paw edema was induced by subplantar injection of 0.1 mL of 1% carrageenan (made in PBS) into the rat right hind paw. The paw volume was measured using the dislocation of the water column of the plethysmometer (Plethysmometr 7140, Ugo Basile) before and at 1, 2, and 3 h after subplantar injection of carrageenan.
# To evaluate the heightened sensitivity to thermal stimuli, we employed a plantar test apparatus (Commat Ltd., Ankara, Turkey). Rats were individually placed in plexiglass chambers and allowed to acclimatize for 20 to 30 min before testing. A radiant heat source was positioned beneath the chamber floor, directly under the hind paw. The time it took for the paw to withdraw in response to the heat was automatically recorded by a photocell and an electronic timer. The intensity of the radiant heat was adjusted to achieve baseline withdrawal times of 10–15 s, and a preset cut-off time of 30 s was established to prevent tissue damage. […] Three successive applications of the heating stimulus were performed, with 1- to 2-minute intervals between them, and the mean of these measurements was calculated. Paw withdrawal latency was recorded for each animal before carrageenan administration and at 1, 2, and 3 h afterward.
# [3] = system: OXPT-induced tactile allodynia; test: oxaliplatin-induced neuropathic pain, von Frey test; format: in vivo; conditions: mice
# Protocol: Neuropathy was induced by administering a single dose (10 mg/kg) of Oxaliplatin (OXPT) dissolved in a 5% glucose solution (Polfa Kutno, Poland). To assess the response to mechanical stimuli, the von Frey test was carried with application of the electronic von Frey unit (Bioseb, France). The apparatus contained a single flexible filament, which was used to apply increasing force ranging from 0 to 10 g to the plantar surface of the mouse’s hind paw. The crossing of pain threshold led to the paw withdrawal. The mechanical pressure that evoked the nocifensive response was subsequently recorded. The measurement was performed before the OXPT administration and 7 days afterwards. The compounds were administrated to the animals with developed mechanical allodynia observed as a statistically significant decrease in pain threshold. On the day of the experiment, each mouse was placed in an observation chamber with a wire mesh bottom and was allowed to habituate for 1 h. After the habituation period, the mouse pain threshold was tested 3 times alternately with at least a 30 s gap between each measurement. The mean of these three consecutive measurements was taken as a baseline value. The mice with tactile allodynia were i.p. pretreated with the tested compound or their combinations, and 30 min later the animals were tested again according to the same procedure.
# CQ-induced pruritus = test: chloroquine (CQ)-induced pruritus; format: in vivo, mice; conditions: mice, 2.5, 5, 10 and 15 mg/kg i.p.; 30 min observation
# Protocol: (§2) The area (around 2 cm^2) of the nape of mice was shaved at least 2 days prior to experiments. On the day of the experiment, each mouse was individually placed in plastic chambers (15 × 15 × 30 cm). After the 30 min period of habituation, the mice received an intradermal (i.d.) injection of histamine dihydrochloride (10 µmol/site), chloroquine (CQ, 200 µg/site), or SLIGRL-NH2 (40 nmol/site), which were dissolved in physiological saline and administrated at the constant volume of 20 μL. Immediately following the injection, scratching (series of movements considered as a single scratching bout usually consisted of three single scratches) of the injected site by the hind paw was counted for 60 min, 30 min, or 45 min after histamine, CQ, and SLIGRL-NH2 injection, respectively.
# SLIGRL-induced pruritus = test: SLIGRL-induced pruritus; format: in vivo; conditions: mice, 45 min observation
# Protocol: as §2
# [4] = up to 10 μM; cited from earlier work
# formalin-induced pain = test: formalin test; format: in vivo, mice
# Protocol: The mice received an intraperitoneal (i.p.) injection of either the test compound or a control solution. After 30 min, a 20 μL injection of a 2.5% formalin solution was administered into the right hind paw. Right after the formalin injection, the animals were individually placed into glass containers and observed for the following 30 min. During specific time intervals (0–5 min, referred to as Phase I, and 15–30 min, referred to as Phase II, post-formalin injection), the time spent by the animals licking or biting the injected paw was recorded..
# [5] = system: carrageenan-induced edema; test: carrageenan-induced paw edema; format: in vivo; conditions: rats, 30 mg/kg
# Protocol: as §1
# [6] = system: histamine-induced pruritus; test: histamine-induced pruritus; format: in vivo; conditions: mice
# Protocol: as §2
# [7] = system: acute thermal pain (hot plate); test: hot plate test; format: in vivo; conditions: mice, 30 mg/kg i.p., 30 min before test; saline control 17.93 ± 1.04 s
# Protocol: The hot plate test was performed according to classical method described in Eddy and Leimbach with modifications. At the beginning, animals were tested for their baseline pain sensitivity threshold. For further studies, only mice that fulfilled the criterium of pain response ≤30 s were used. […] The latency to pain response (licking the hind paw or jumping) was measured. The cut-off time was set to up to 60 s to avoid tissue damage, and mice not responding within 60 s were removed from the apparatus and assigned the score of 60 s.
# human sigma 1 receptor = target: T1, human sigma 1 receptor (Homo sapiens, UniProt Q99720); test: radioligand binding, human sigma 1 receptor ([3H](+)pentazocine, Jurkat cells)
# T1 construct: [^3H](+)pentazocine (agonist) in Jurkat cells; host or cells: Jurkat cells
# T1 sequence (Q99720 whole entry): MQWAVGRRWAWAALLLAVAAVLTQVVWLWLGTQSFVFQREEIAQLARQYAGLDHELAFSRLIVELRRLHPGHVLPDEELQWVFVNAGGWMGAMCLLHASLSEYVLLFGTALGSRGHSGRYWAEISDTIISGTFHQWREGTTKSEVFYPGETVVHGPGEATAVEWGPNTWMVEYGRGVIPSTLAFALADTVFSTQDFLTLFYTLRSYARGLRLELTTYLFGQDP
# human sigma 2 receptor = target: T2, human sigma 2 receptor (Homo sapiens, UniProt Q5BJF2); test: radioligand binding, human sigma 2 receptor ([3H]DTG, Jurkat cells); conditions: [3H]DTG with unlabeled (+)-pentazocine
# T2 construct: host or cells: Jurkat cells
# T2 sequence (Q5BJF2 whole entry): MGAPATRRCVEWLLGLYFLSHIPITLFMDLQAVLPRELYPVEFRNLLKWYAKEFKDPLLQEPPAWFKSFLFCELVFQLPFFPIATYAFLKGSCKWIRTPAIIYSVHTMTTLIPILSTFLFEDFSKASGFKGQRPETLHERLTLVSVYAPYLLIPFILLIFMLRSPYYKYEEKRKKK
# eqBuChE = system: eqBuChE; design: method as in PMID 34208297; conditions: cited from earlier work
# [8] = system: (R)-(-)-α-methylhistamine-induced dipsogenia; design: method as in PMID 28797771; conditions: rats; cited from earlier work
smiles,measurement,setting,value
"O=C(O)C(=O)O.c1ccc(-c2ccc(OCCCCCN3CCCCCC3)cc2)cc1 [Compound E153, 1-(5-(4-Phenylphenoxy)pentyl)azepane hydrogen oxalate]",Ki,[1],1270 nM
same,"paw withdrawal latency (thermal), % of baseline","[2]; 15 mg/kg, 1 h after carrageenan",100.8%
same,"paw withdrawal latency (thermal), % of baseline","[2]; 15 mg/kg, 2 h after carrageenan",122.6%
same,"paw withdrawal latency (thermal), % of baseline","[2]; 15 mg/kg, 3 h after carrageenan",122.6%
same,"paw withdrawal latency (thermal), % of baseline","[2]; 30 mg/kg, 1 h after carrageenan",130.3%
same,"paw withdrawal latency (thermal), % of baseline","[2]; 30 mg/kg, 2 h after carrageenan",114.8%
same,"paw withdrawal latency (thermal), % of baseline","[2]; 30 mg/kg, 3 h after carrageenan",126.6%
same,"von Frey paw withdrawal force, % of baseline","[3]; 10 mg/kg i.p., early phase (3 h after OXPT), OXPT alone 60.13%",71.5%
same,reversal of the effect of OXPT (von Frey),"[3]; 10 mg/kg i.p., late phase (7 days after OXPT)",not in late phase
same,"von Frey paw withdrawal force, % of baseline","[3]; 15 mg/kg i.p., early phase (3 h), OXPT alone 60.5%",80.0%
same,"von Frey paw withdrawal force, % of baseline","[3]; 15 mg/kg i.p., late phase (7 days), OXPT alone 57.4%",79.4%
same,"von Frey paw withdrawal force, % of baseline","[3]; 30 mg/kg i.p., early phase (3 h), OXPT alone 57.9%",97.9%
same,"von Frey paw withdrawal force, % of baseline","[3]; 30 mg/kg i.p., late phase (7 days), OXPT alone 60.6%",87.9%
same,"number of scratch bouts, CQ-induced pruritus",CQ-induced pruritus,significantly decreased
same,"scratch bouts, SLIGRL-induced pruritus",SLIGRL-induced pruritus; 5 mg/kg i.p.,not effective
same,"scratch bouts, SLIGRL-induced pruritus",SLIGRL-induced pruritus; 7.5 and 10 mg/kg i.p.,significantly diminished
same,mutagenicity in the AMES test,[4],non-mutagenic
same,"duration of the nociceptive response, acute phase of the formalin test","formalin-induced pain; mice, 10, 15 and 30 mg/kg i.p., 0–5 min after formalin",did not significantly affect
same,"paw licking or biting behavior, late phase of the formalin test","formalin-induced pain; mice, all doses tested (10, 15 and 30 mg/kg i.p.), 15–30 min after formalin",significantly attenuated
same,"paw volume increase, carrageenan edema","[5]; 1 h after carrageenan, vehicle 51.1%",27.1%
same,"paw volume increase, carrageenan edema","[5]; 2 h after carrageenan, vehicle 102.4%",45.4%
same,"paw volume increase, carrageenan edema","[5]; 3 h after carrageenan, vehicle 123.5%",42.6%
same,activity in histamine-induced pruritus,[6]; 5 mg/kg i.p.,active
same,"scratching behavior, histamine-induced pruritus",[6]; i.p. 30 min before i.d. histamine,significantly reduced scratching behavior
same,"latency time of the pain reaction, hot plate test",[7],37.60 ± 6.13 s
same,IC50,human sigma 1 receptor,2.4 nM
same,Ki,human sigma 1 receptor,1.2 nM
same,inhibition at 1 µM,human sigma 1 receptor; at 1 μM,95%
same,inhibition at 1 µM,human sigma 2 receptor,102%
same,IC50,eqBuChE,590 nM
same,"ED50, (R)-(-)-α-methylhistamine-induced dipsogenia",[8],1.75 mg/kg
